According to patent publication US20240150282A1, “NOVEL CRYSTALLINE COMPOUND OF SIPONIMOD HEMIFUMARATE” (OLON S.P.A., priority 2021, published 2024):

Experiments:
[1] = Stability of the crystalline form during isolation and drying; assay type: physicochemical
Source text: According to another of its aspects, subject-matter of the invention is a process for the preparation of the NP01 Form of Siponimod Hemifumarate, comprising carrying out the steps (a) and (b) stated above for the preparation of the NP04 Form.

[2] = Stability assays of the NP04 Form (storage, humidity, shredding, compression); assay type: physicochemical
Method: Stability assays of the NP04 Form
Aliquots of the compound obtained from Example 1 were subjected to the following assays: • closed in a sealed bottle for 8 days • at 25° C. with 100% relative humidity for 7 days • at 25° C. with 60% relative humidity for 7 days • at 60° C. with 75% relative humidity for 3 days • shredding treatment • Compression test under 1, 2 and 3 tons

## CCc1cc(/C(C)=N/OCc2ccc(C3CCCCC3)c(C(F)(F)F)c2)ccc1CN1CC(C(=O)O)C1 [NP01 Form, Siponimod Hemifumarate]
[1]
  stability of the crystalline form: unstable and converts to the NP04 Form

## CCc1cc(/C(C)=N/OCc2ccc(C3CCCCC3)c(C(F)(F)F)c2)ccc1CN1CC(C(=O)O)C1 [NP04 Form, Siponimod Hemifumarate]
[2]; 25° C. with 60% relative humidity for 7 days
  solid form stability (form recovered after treatment): stable
[2]; 25° C. with 100% relative humidity for 7 days
  solid form stability (form recovered after treatment): stable
[2]; 60° C. with 75% relative humidity for 3 days
  solid form stability (form recovered after treatment): stable
[2]; closed in a sealed bottle for 8 days
  solid form stability (form recovered after treatment): stable
[2]; compression test under 1, 2 and 3 tons
  solid form stability (form recovered after treatment): stable
[2]; shredding treatment
  solid form stability (form recovered after treatment): stable
